Structures can show the parent of a compound that is named as a salt.
Biological target: Estrogen receptor beta (Homo sapiens, UniProt Q92731)
Assay: ERbeta binders displacing fluorescent estradiol, dose response, cell-based, Cos7 ERbeta-GFP, E2-Alexa633, flow cytometry (AID 1221)
[1] = inactive by the depositor's call

Chain of Estrogen receptor beta (Q92731 whole entry): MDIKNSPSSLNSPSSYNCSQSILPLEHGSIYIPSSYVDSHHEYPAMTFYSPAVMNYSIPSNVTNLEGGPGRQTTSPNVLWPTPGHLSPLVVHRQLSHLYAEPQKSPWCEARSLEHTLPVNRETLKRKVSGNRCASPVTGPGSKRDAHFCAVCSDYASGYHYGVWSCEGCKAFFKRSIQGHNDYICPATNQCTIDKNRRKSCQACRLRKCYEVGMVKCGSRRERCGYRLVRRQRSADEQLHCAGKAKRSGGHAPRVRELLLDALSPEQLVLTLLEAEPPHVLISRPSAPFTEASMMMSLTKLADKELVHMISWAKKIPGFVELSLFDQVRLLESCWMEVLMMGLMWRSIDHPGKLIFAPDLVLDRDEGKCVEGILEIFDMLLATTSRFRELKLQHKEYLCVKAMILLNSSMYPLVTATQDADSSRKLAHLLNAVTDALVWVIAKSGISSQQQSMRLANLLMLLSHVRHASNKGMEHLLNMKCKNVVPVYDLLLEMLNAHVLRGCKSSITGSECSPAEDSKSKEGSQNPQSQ

Row | EC50 [nM] | EC50 [1] [nM] | Structure (SMILES)
1 | 2.73 |  | O=C(c1cc2ncc(Br)cn2n1)N1CCN(C(=O)c2ccco2)CC1 [6-bromo-2-{[4-(2-furoyl)-1-piperazinyl]carbonyl}pyrazolo[1,5-a]pyrimidine]
2 | 184 |  | CC(=O)c1ccc2c(c1)[C@@H]1C=CC[C@@H]1[C@H](c1cc3c(cc1Br)OCO3)N2
3 | 0.87 |  | COc1ccccc1N1CCN(C(=O)c2ccc3nc(-c4ccco4)c(-c4ccco4)nc3c2)CC1 [2,3-di-2-furyl-6-{[4-(2-methoxyphenyl)piperazin-1-yl]carbonyl}quinoxaline]
4 |  | 16.3 | O=C(OCC(=O)N1CCN(C(=O)c2ccco2)CC1)c1cc(-c2ccco2)nc2ccccc12 [2-(2-furanyl)-4-quinolinecarboxylic acid [2-[4-[2-furanyl(oxo)methyl]-1-piperazinyl]-2-oxoethyl] ester]
5 |  | 729 | O=C(O)c1cc(Cl)c2c(c1)[C@@H]1C=CC[C@@H]1[C@H](c1ccc(S(=O)(=O)N3CCOCC3)cc1)N2 [(3aS,4R,9bR)-6-chloranyl-4-(4-morpholin-4-ylsulfonylphenyl)-3a,4,5,9b-tetrahydro-3H-cyclopenta[c]quinoline-8-carboxylic acid]
6 |  | 438 | Cc1oc2cc(O)ccc2c(=O)c1Oc1ccccc1 [2-methyl-7-oxidanyl-3-phenoxy-chromen-4-one]
7 |  | 2280 | COc1ccc(NS(=O)(=O)c2ccc3c(c2)[C@H]2C=CC[C@H]2[C@@H](c2ccc(C(=O)O)cc2)N3)cc1
8 |  | 70.7 | Cc1ccc(C(=O)N/N=C/c2ccc([N+](=O)[O-])s2)cc1 [4-methyl-N-[(5-nitro-2-thiophenyl)methylideneamino]benzamide]
9 |  | 83.7 | CCCCOC(=O)c1c(C)oc2ccc(NS(=O)(=O)c3ccc4c5c(cccc35)C(=O)N4)cc12 [2-methyl-5-[(2-oxo-1H-benzo[cd]indol-6-yl)sulfonylamino]-3-benzofurancarboxylic acid butyl ester]
10 | 1.74 |  | O=C(COC(=O)CCC(=O)c1cccs1)NCc1ccco1 [4-keto-4-(2-thienyl)butyric acid [2-(2-furfurylamino)-2-keto-ethyl] ester]
11 |  | 4180 | Cc1cc(-c2nn3c(-c4ccccc4)nnc3s2)c2ccccc2n1 [2-methyl-4-(3-phenyl[1,2,4]triazolo[3,4-b][1,3,4]thiadiazol-6-yl)quinoline]
12 | > 10000 |  | CCn1nnc(NC(=O)CSc2ccc(Cl)cc2)n1 [2-(4-chlorophenyl)sulfanyl-N-(2-ethyl-1,2,3,4-tetrazol-5-yl)ethanamide]
13 | 7.69 |  | CCC(=O)Oc1ccc(C(CC)C(CC)c2ccc(OC(=O)CC)cc2)cc1 (centres undefined) [HEXESTROL DIPROPIONATE]
14 |  | 165 | Cc1cc(C)c2c(c1)[C@@H]1C=CC[C@@H]1[C@H](c1ccc(S(=O)(=O)N3CCOCC3)cc1)N2 [(3aS,4R,9bR)-6,8-dimethyl-4-[4-(morpholin-4-ylsulfonyl)phenyl]-3a,4,5,9b-tetrahydro-3H-cyclopenta[c]quinoline]
15 |  | 99.4 | COc1ccc(CNC(=O)c2cc(-c3cccs3)on2)cc1 [MLS000087249]
16 | 39.9 |  | CCc1ccc(-c2nn(-c3ccccc3)cc2CSC(=N)N)cc1 [2-[[3-(4-ethylphenyl)-1-phenyl-pyrazol-4-yl]methyl]isothiourea;hydrochloride]
17 | 0.65 |  | O=C(O)c1ccc([N+](=O)[O-])c2c1NC(c1ccccc1)C1CC=CC21 (centres undefined) [9-nitro-4-phenyl-3a,4,5,9b-tetrahydro-3H-cyclopenta[c]quinoline-6-carboxylic acid]
18 | > 10000 |  | O=C1C=C/C(=C2/Nc3ccc4ccccc4c3C3=C2CCC3)C=C1O [SMR000184811]
19 | > 10000 |  | CC(=O)c1ccc2c(c1)C1C=CCC1C(c1cccc([N+](=O)[O-])c1)N2 (centres undefined) [1-[4-(3-nitrophenyl)-3a,4,5,9b-tetrahydro-3H-cyclopenta[c]quinolin-8-yl]ethanone]
20 | 1260 |  | O=C(Nc1cc(C(F)(F)F)ccc1N1CCOCC1)C1Cc2ccccc2CN1C(=O)c1ccco1 (centres undefined) [2-(2-furoyl)-N-[2-morpholino-5-(trifluoromethyl)phenyl]-3,4-dihydro-1H-isoquinoline-3-carboxamide]
21 |  | 2350 | Nc1ccc(-c2nc3cc([N+](=O)[O-])ccc3[nH]2)cc1
22 | 2.14 |  | Nc1ncnc2c1ncn2C1CCC(CO)C(O)C1 (centres undefined) [5-(6-aminopurin-9-yl)-2-(hydroxymethyl)-1-cyclohexanol]

Row | Structure (SMILES) | EC50 [nM] | EC50 [1] [nM]
23 | CC(=O)Oc1ccc(C2Nc3c(C(=O)O)ccc([N+](=O)[O-])c3C3C=CCC32)cc1 (centres undefined) [4-(4-acetoxyphenyl)-9-nitro-3a,4,5,9b-tetrahydro-3H-cyclopenta[c]quinoline-6-carboxylic acid] | > 10000 | 
24 | C[C@]12CC[C@@H]3c4ccc(O)cc4C(=O)C[C@H]3[C@@H]1CC[C@@H]2O [(8R,9S,13S,14S,17S)-13-methyl-3,17-bis(oxidanyl)-8,9,11,12,14,15,16,17-octahydro-7H-cyclopenta[a]phenanthren-6-one] |  | 38.1
